Key:
p47^phox = target: T1, p47^phox (Homo sapiens, UniProt P14598); assay: p47phox translocation from cytosol to membrane (Western blot) in PMA-stimulated HL-60 differentiated cells; type: cell-based; details: PMA 0.8 µM, 20 µM
T1 construct: we evaluated p47^phox translocation from the cytosol to the membrane in HL-60 differentiated cells; endogenous in cells; host or cells: neutrophil-differentiated HL-60 cells treated with PMA; membrane and cytosolic fractions obtained by cryo-fracture
T1 sequence (P14598 1-390): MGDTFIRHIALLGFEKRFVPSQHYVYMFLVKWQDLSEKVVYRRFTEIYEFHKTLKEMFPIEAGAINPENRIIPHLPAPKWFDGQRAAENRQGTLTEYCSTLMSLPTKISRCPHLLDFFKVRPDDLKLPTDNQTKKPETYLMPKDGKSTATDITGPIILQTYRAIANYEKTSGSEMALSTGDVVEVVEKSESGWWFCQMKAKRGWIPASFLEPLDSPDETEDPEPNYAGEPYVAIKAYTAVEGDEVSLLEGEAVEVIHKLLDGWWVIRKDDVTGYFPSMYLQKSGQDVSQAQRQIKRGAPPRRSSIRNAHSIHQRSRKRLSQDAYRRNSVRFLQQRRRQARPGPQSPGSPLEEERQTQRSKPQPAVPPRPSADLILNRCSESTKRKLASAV
Method: Neutrophil-differentiated HL-60 cells (2 × 10^6 cells/mL) were incubated at 37 °C in a humid atmosphere with 5% CO2 and 50 μM of the different acrylonitrile compounds, then PMA 0.8 μM was added and incubated for 1 h to induce the activation of the enzyme NADPH oxidase. As a positive inhibition control, VAS2870 (20 μM) was used. Another two controls were performed: one with cells activated by PMA in the presence of DMSO, and the other (NA, non-activated) with cells in the absence of PMA and the acrylonitrile compounds. In 15 mL conical tubes, 5 mL of cell suspension from each treatment and control condition was transferred at 2 × 10^6 cells/mL and centrifuged at 1000 rpm at 4 °C for 10 min. The supernatant was then discarded, and each pellet was re-suspended in 2 mL of a 4% PBS solution with 2 mM EGTA and 0.25 mM PMSF frozen at −80 °C for 10 min. Then each pellet was thawed on ice. After this, the cell suspension was passed through a glass tissue homogenizer (Deltalab®, I.C.T, S.L, La Rioja, Spain) 20 times. The freezing-thawing and homogenization processes were repeated three times. Finally, the homogenate was centrifuged at 15,000 rpm at 4 °C for 15 min. The supernatant (cytosolic fraction) was removed from the pellet (membranes were prepared). A fraction was removed for the determination of total proteins, and the remainder was stored at −80 °C for further analysis. […]

[1] = test system: cardiomyocytes isolated from mdx mice; assay: NOX2-mediated ROS production (DCF-DA, confocal) in mdx cardiomyocytes; type: cell-based, mouse; details: 20 µM
Source text: Cardiomyocytes were isolated from mdx mice (C57BL/10ScSn-DMDmdx/J, stock number 001801M, Jackson Laboratories, Bar Harbor, […], USA). Male mdx mice of 19 months of age were used, which were housed in individual cages with water and food ad libitum. All the procedures were adjusted to the “Guide for the Care and Use of Laboratory Animals” (1996) of the National Institute of Health and were approved by the Institutional Committee for Animal Care and Use of the Universidad de Talca. Mice were pre-medicated with heparin i.p. (200U.) and then sacrificed by cervical dislocation. The heart was rapidly removed, cannulated through the aorta, and retrogradely perfused in a steady flow (2 mL/min) at 37 °C. The hearts were initially perfused for 10 min with a Ca^2+-free bicarbonate buffer solution containing (in mM) 120 NaCl; 5.4 KCl; 1.2 MgSO4; 1.2 NaH2PO4; 5.6 glucose; 20 NaHCO3; 10 BDM, and 5 taurine, bubbled with a 95% O2–5% CO2 mixture. Enzyme digestion was performed with collagenase type II (1 mg/mL; Worthington Biochemical Corp., Lakewood, NJ, USA) and protease type XIV (0.1 mg/mL; Sigma-Aldrich) as previously reported. Isolated cardiomyocytes were transferred to 1.5 mL Eppendorf tubes and preincubated with the heteroaryl acrylonitrile compounds.
Cardiomyocytes isolated from mdx mice were transferred to Eppendorf tubes to be incubated with 1 μM of the indole heteroaryl-acrylonitrile derivatives for 30 min, protected from light, at room temperature. VAS2870 (20 μM) was used as a positive control for NOX2 inhibition. 2′,7′-dichlorofluorescein diacetate (DCF-DA) (10 μM) was then added and incubated for 15 min. Subsequently, it was allowed to sediment by gravity to remove the supernatant, and the pellets obtained were in a phosphate saline solution (PBS). 200 μL of the cell suspension were placed on pre-treated polylysine slides (Thermo Fischer, USA) and fixed with 2% paraformaldehyde (Sigma-Aldrich®, St. Louis, MO, USA) for 10 min at 4 °C. […] From the acquired images, the fluorescence intensity was quantified at 495 nm, and the data were reported as fluorescence intensity per pixel.

isolated rat hearts = assay: Ischemia-reperfusion in isolated rat heart (Langendorff); details: 100 µM, TTC staining

c1ccc(Cn2nnc3c(Sc4nc5ccccc5o4)ncnc32)cc1 [VAS2870, 7-(1,3-Benzoxazol-2-ylsulfanyl)-3-benzyl-3H-[1,2,3]triazolo [4,5-d]pyrimidine, reference compound]
translocation of p47phox to the membrane (in words) (p47^phox): significantly reduced the translocation of p47^phox to the membrane | NOX2-derived ROS, DCF (in words) [1]: reduced

COc1cc(C(C)=O)ccc1O [apocynin]
infarcted area (in words) (isolated rat hearts): reduced the infarcted area

Reference: PMC10376059, “New NADPH Oxidase 2 Inhibitors Display Potent Activity against Oxidative Stress by Targeting p22^phox-p47^phox Interactions” (Antioxidants, 2023)
